Test results as given in patent US9845295B2, “Triphenylethylene compounds and uses thereof” (Purdue Research Foundation, priority 2015, dated 2017).
One block for each molecule: values may come before it.

Legend:
recombinant human ER-β = biological target: T1, recombinant human ER-β (Homo sapiens, UniProt Q92731); assay: Binding affinity for recombinant human ER-β (fluorescence polarization, ES2 displacement); details: Table 1; determined only for compounds with >90% competition
T1 construct: purchased Invitrogen (Carlsbad, Calif.)
T1 sequence (Q92731 whole entry): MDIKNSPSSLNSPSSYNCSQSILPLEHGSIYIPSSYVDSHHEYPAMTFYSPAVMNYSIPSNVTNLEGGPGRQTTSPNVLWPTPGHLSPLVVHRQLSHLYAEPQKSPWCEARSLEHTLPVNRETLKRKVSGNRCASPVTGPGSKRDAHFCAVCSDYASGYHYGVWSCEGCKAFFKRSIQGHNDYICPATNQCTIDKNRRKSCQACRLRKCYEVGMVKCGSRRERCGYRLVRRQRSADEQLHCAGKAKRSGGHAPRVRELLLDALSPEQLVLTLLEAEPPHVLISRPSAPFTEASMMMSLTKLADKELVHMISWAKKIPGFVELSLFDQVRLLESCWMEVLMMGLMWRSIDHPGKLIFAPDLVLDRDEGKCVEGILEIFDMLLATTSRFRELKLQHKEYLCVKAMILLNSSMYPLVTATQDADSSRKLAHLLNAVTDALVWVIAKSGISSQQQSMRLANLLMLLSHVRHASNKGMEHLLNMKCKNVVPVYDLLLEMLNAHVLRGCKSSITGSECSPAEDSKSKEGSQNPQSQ
Experimental: (§1) Binding Affinities for Recombinant Human ER-α and ER-β.
(§2) The binding affinities of ER-α and ER-β were determined by measuring the change of polarization value when the fluorescent estrogen ligand, ES2, was displaced by the tested compounds. Experimental procedures were consistent with the protocol provided by Invitrogen. The fluorescent estrogen ligand, ES2, was provided in methanol/water (4:1, v/v) with the concentration of 1800 nM. Recombinant human ER-α and ER-β were provided in buffer (50 mM bis-tris propane, 400 mM KCl, 2 mM DTT, 1 mM EDTA and 10% glycerol), with the concentration of 734 nM and 3800 nM, respectively. All tested samples were dissolved in either methanol or DMSO. The sample solutions (1 pt) were mixed well with 49 pt of ES2 screening buffer (100 mM potassium phosphate, 100 μg/mL BGG and 0.02% NaN3). The ER-α/ES2 complex was prepared with the fluorescent estrogen ligand ES2, human recombinant ER and ES2 screening buffer with the concentrations of 9 nM ES2 and 30 nM ER-α. The ER-β/ES2 complex was prepared with the fluorescent estrogen ligand ES2, human recombinant ER-β and ES2 screening buffer with the concentrations of 9 nM ES2 and 20 nM ER-ft Reactions were initiated by adding ER/ES2 complex (50 μL) to bring the incubation volume to 100 μL and incubated for 2 h avoiding light. […] Excitation-emission wavelengths for fluorescence polarization were […]. The polarization values in the presence of the test competitors were compared with those in control, in which the competitor was replaced with vehicle. The extent of competition was expressed as the percentage of remaining polarization compared to the control.

recombinant human ER-α = biological target: T2, recombinant human ER-α (Homo sapiens, UniProt P03372); assay: Binding affinity for recombinant human ER-α (fluorescence polarization, ES2 displacement)
T2 construct: purchased Invitrogen (Carlsbad, Calif.)
T2 sequence (P03372 1-595): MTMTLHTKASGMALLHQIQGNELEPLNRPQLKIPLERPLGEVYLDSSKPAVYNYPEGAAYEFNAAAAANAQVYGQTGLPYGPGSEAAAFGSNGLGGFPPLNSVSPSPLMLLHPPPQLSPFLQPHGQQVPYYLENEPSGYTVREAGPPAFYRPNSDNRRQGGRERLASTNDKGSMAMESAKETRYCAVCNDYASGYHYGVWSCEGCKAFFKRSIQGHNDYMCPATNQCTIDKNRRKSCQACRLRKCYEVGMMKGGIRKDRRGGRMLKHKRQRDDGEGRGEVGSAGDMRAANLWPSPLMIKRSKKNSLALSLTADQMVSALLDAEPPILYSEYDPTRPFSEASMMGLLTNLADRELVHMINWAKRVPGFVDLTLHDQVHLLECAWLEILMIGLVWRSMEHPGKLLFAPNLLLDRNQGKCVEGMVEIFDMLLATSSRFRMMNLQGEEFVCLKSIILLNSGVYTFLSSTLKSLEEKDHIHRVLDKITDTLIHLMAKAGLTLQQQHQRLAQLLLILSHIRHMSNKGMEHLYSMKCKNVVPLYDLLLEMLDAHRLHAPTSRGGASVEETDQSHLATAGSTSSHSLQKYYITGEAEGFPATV
Experimental: as §1, §2

[1] = biological target: T3, recombinant human aromatase (CYP19) (Homo sapiens, UniProt P11511); assay: Inhibition of recombinant human aromatase (CYP19) by microsomal incubations (MFC fluorometric substrate); format: biochemical
T3 construct: purchased BD Biosciences (San Jose, Calif.)
T3 sequence (P11511 1-503): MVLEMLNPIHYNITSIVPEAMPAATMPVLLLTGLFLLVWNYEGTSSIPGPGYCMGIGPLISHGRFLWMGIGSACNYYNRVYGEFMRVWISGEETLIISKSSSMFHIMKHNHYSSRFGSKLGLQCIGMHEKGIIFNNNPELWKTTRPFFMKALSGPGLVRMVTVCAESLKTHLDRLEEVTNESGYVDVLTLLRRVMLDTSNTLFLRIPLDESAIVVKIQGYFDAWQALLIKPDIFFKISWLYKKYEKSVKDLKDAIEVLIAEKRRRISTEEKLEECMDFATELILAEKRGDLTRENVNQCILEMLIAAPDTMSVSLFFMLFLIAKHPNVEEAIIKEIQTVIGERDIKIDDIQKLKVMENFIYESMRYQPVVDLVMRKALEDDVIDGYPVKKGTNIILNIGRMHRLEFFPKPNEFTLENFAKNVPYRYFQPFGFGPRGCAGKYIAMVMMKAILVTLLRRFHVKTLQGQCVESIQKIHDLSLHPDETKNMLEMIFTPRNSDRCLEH
Experimental: Inhibition of Recombinant Human Aromatase (CYP19) by Microsomal Incubations.
All tested samples were dissolved in either methanol or DMSO. […] All the reactions were stopped by adding 0.1 M tris base dissolved in acetonitrile (75 μL). […] The extent of enzyme inhibition was expressed as the percentage of remaining enzyme activity compared to the control.

ER in MCF-7-2a cells = details: in words; cited from earlier work
[2] = test system: postmenopausal women with breast cancer; details: five-year ATAC trial; cited from earlier work
[3] = test system: progesterone receptor (PGR) mRNA expression in MCF-7 human breast cancer cells; assay: Antagonism of β-estradiol-stimulated progesterone receptor (PGR) mRNA expression in MCF-7 cells; format: cell-based; details: 1 μM compound, 24 h, 10 nM E2 alone set as 100%
Experimental: To investigate the effects of ligand binding on ER-mediated transcriptional activities, the triphenylethylene bisphenols were tested for their abilities to antagonize β-estradiol (E2) in a functional assay. […] In this commonly used assay, the progesterone receptor (PGR) mRNA expression is used for assessing estrogenic or antiestrogenic activity in MCF-7 human breast cancer cells. […] The PGR mRNA expression level with 10 nM E2 stimulation alone was set as 100%, and the antiestrogenic effects of the compounds was monitored by the reduction of β-estradiol-stimulated mRNA levels.
Cell Culture and Test Compound Treatment. […]
The MCF-7 cells treated with test compounds or experimental controls for 24 h were harvested for progesterone receptor (PGR) messenger ribonucleic acid (mRNA) extraction. […] The RNA concentration was measured using the Qubit RNA BR assay (Life Technologies Corp., Carlsbad, Calif.) for the Qubit 2.0 fluorometer (Life Technologies Corp., Carlsbad, Calif.). […]
Complementary deoxyribonucleic acid (cDNA) for the real-time quantitative polymerase chain reaction (PCR) assay was synthesized from DNase-treated total RNA using the QuantiTect reverse transcription kit (QiagenInc., Valencia, Calif., USA).
Real-Time Quantitative Polymerase Chain Reaction (PCR) for cDNA. […]

[4] = Table 1, mean of at least three experiments

Compound: CCC(=C(c1ccc(O)cc1)c1ccc(O)cc1)c1ccccc1 [Compound 7, reference compound]
EC50 (recombinant human ER-β): 307 ± 106 nM
ER-α percent competition (recombinant human ER-α; Table 2, at 100000 nM compound): 80% competition
IC50 ([1]; Table 2, determined for compounds with inhibition higher than 90%): 24900 ± 1400 nM
ER antagonism / agonism in MCF-7-2a cells (ER in MCF-7-2a cells): good ER antagonist without significant agonistic side effects

Compound: CC(C)(C#N)c1cc(Cn2cncn2)cc(C(C)(C)C#N)c1 [anastrozole]
improvement of disease-free survival compared to tamoxifen [2]: 13%
reduction in occurrence of contralateral breast cancer compared to tamoxifen [2]: 42%
reduction in risk of distant metastasis compared to tamoxifen [2]: 16%
reduction in the rate of recurrence compared to tamoxifen [2]: 21%

Compound: CC/C(=C(\c1ccc(O)cc1)c1ccc(OCCN)cc1)c1ccccc1 [(E,Z)-norendoxifen]
PGR mRNA expression level in the presence of 10 nM E2 [3]: 33%

Compound: CC/C(=C(\c1ccc(O)cc1)c1ccc(OCCNC)cc1)c1ccccc1 [Endoxifen]
PGR mRNA expression level in the presence of 10 nM E2 [3]: 10%

Continued, values first:

EC50 (recombinant human ER-β): 40.9 nM
EC50 (recombinant human ER-α; Table 1, determined only for compounds with >90% competition): 27.3 nM
IC50 [1, 4]: 4.77 ± 0.38 nM
fold improvement/increase in aromatase inhibitory activity compared with 7 ([1]; vs compound 7): > 5000 fold
melting point: 225 to 227 °C
Compound: Oc1ccc(C(=C(Cn2ccnc2)c2ccccc2)c2ccc(O)cc2)cc1 [Compound 12, 4,4′-(3-(1H-Imidazol-1-yl)-2-phenylprop-1-ene-1,1-diyl)diphenol]

ER-α percent competition (recombinant human ER-α; Table 1, at 100 μM compound): 12% competition
IC50 [1, 4]: 137 nM
melting point: 143 to 145 °C
Compound: Oc1ccc(C(=C(Cn2cncn2)c2ccccc2)c2ccc(O)cc2)cc1 [Compound 13, 4,4′-(2-Phenyl-3-(1H-1,2,4-triazol-1-yl)prop-1-ene-1,1-diyl)diphenol]
